Measurements from patent publication US12668845B2, “Methods for predicting drug responsiveness in cancer patients” (Allarity Therapeutics Europe ApS, priority 2018, dated 2026).

Legend:
Hs578T = experiment: Growth inhibition of cell lines treated with 2X-121; assay type: cell-based; conditions: Homo sapiens, Hs-578T; cell line Hs578T, origin Breast; read-out: Measured growth inhibition IC50
HCC1143 = experiment: as above; assay type: cell-based; conditions: Homo sapiens; cell line HCC1143, origin Breast; read-out: Measured growth inhibition IC50
BT-20 = experiment: as above; assay type: cell-based; conditions: Homo sapiens; cell line BT-20, origin Breast; read-out: Measured growth inhibition IC50
DU145 = experiment: as above; assay type: cell-based; conditions: Homo sapiens, DU-145; cell line DU145, origin Prostate; read-out: Measured growth inhibition IC50
HEC-1 = experiment: as above; assay type: cell-based; conditions: Homo sapiens; cell line HEC-1, origin Endometrial; read-out: Measured growth inhibition IC50
ECC-1 = experiment: as above; assay type: cell-based; conditions: Homo sapiens; cell line ECC-1, origin Endometrial; read-out: Measured growth inhibition IC50
HEC-50B = experiment: as above; assay type: cell-based; conditions: cell line HEC-50B, origin Endometrial; read-out: Measured growth inhibition IC50
HEC-88nu = experiment: as above; assay type: cell-based; conditions: cell line HEC-88nu, origin Endometrial; read-out: Measured growth inhibition IC50
MFE-280 = experiment: as above; assay type: cell-based; conditions: Homo sapiens; cell line MFE-280, origin Endometrial; read-out: Measured growth inhibition IC50
RL95-2 = experiment: as above; assay type: cell-based; conditions: Homo sapiens; cell line RL95-2, origin Endometrial; read-out: Measured growth inhibition IC50
NCI-H82 = experiment: as above; assay type: cell-based; conditions: Homo sapiens; cell line NCI-H82, origin SCLC; read-out: Measured growth inhibition IC50
NCI-H69 = experiment: as above; assay type: cell-based; conditions: Homo sapiens; cell line NCI-H69, origin SCLC; read-out: Measured growth inhibition IC50
Pfeiffer = experiment: as above; assay type: cell-based; conditions: Homo sapiens; cell line Pfeiffer, origin DLBCL (GC); read-out: Measured growth inhibition IC50
Jeko-1 = experiment: as above; assay type: cell-based; conditions: Homo sapiens; cell line Jeko-1, origin MCL; read-out: Measured growth inhibition IC50
ARH-77 = experiment: as above; assay type: cell-based; conditions: Homo sapiens; cell line ARH-77, origin Myeloma; read-out: Measured growth inhibition IC50
tumor = experiment: Phase I trial of 2X-121 (NCT01618136), clinical response; assay type: in vivo, human; design: key to RECIST: SD = stable disease; PD = progressive disease; PR = partial response
Procedure: A Phase I trial of 2X-121 was conducted in the UK (clinicaltrial.gov number NCT01618136). 2X-121 was administered as daily oral doses of 50-800 mg. Of 41 patients enrolled in the Phase I trial, 35 had response assessment. Of these, 2 had partial response (PR) (5% overall response rate (ORR)) and 13 had stable disease (SD). Biopsies and BRCA analysis were voluntary and available from 16, and 7 patients, respectively.
Of the 16 patients with biopsies, 13 passed our quality control (QC) in the lab and were assayed on the Affymetrix HG-U133Plus2 array.
A statistical analysis plan was completed before initiation of blinded prediction of 2X-121 sensitivity on the 13 samples. In this analysis, the difference of the mean expression of genes in Table 3 were subtracted from the mean expression of genes in Table 2 for each patient to determine a difference score. This score was compared to a reference population of 819 breast cancer patients to convert the difference score to a percentile score. The percentile score is shown in Table 4 as “DRP score” and used for FIGS. 3 and 4, and Tables 5 and 6.

P-glycoprotein = P-glycoprotein (Homo sapiens, UniProt P08183); conditions: cited from earlier work
P-glycoprotein, sequence (P08183 whole entry): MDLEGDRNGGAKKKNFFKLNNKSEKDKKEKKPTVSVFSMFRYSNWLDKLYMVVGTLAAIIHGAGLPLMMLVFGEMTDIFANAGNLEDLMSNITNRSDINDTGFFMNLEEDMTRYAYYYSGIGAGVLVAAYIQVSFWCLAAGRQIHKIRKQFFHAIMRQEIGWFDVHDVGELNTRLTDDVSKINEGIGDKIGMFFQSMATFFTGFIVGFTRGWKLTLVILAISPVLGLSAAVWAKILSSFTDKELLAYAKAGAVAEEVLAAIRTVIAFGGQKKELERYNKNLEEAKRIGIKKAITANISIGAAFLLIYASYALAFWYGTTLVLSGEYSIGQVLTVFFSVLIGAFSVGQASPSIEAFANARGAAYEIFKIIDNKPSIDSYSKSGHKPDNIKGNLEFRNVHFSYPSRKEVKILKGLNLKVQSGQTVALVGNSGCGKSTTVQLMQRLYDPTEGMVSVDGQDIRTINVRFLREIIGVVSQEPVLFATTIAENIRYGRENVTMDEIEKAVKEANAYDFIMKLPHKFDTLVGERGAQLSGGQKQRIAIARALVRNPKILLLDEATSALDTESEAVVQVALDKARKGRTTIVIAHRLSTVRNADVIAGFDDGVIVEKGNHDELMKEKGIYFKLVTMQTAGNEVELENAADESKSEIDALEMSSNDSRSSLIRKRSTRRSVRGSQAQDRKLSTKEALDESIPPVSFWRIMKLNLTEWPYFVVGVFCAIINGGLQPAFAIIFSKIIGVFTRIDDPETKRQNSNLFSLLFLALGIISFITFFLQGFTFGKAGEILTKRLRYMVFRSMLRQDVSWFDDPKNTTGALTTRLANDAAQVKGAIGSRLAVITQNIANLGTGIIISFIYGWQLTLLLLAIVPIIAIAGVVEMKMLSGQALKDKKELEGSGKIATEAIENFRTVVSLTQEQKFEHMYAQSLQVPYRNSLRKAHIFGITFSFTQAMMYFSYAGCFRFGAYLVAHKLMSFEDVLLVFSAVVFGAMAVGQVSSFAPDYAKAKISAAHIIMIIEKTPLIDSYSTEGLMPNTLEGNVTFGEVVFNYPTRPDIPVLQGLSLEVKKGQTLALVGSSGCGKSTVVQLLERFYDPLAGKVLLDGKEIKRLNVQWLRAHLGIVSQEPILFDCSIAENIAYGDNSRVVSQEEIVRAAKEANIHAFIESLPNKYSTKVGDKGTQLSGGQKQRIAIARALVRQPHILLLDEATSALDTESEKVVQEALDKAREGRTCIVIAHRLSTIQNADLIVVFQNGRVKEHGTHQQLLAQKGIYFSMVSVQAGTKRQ

[1] = tested on: P-glycoprotein expressing cells; conditions: cited from earlier work
[2] = cited from earlier work
[3] = Patient 1, tumor pancreas, 2X-121 dose 600 mg
[4] = Patient 2, tumor mesothelioma, 2X-121 dose 200 mg
[5] = Patient 3, tumor pancreas, 2X-121 dose 600 mg
[6] = Patient 4, tumor intestine, 2X-121 dose 600 mg
[7] = Patient 5, tumor ovary, 2X-121 dose 600 mg
[8] = Patient 6, tumor lung, 2X-121 dose 50 mg
[9] = Patient 7, tumor pancreas, 2X-121 dose 50 mg
[10] = Patient 8, tumor adrenal, 2X-121 dose 400 mg
[11] = Patient 9, tumor kidney, 2X-121 dose 400 mg
[12] = Patient 10, tumor ovary, 2X-121 dose 800 mg
[13] = Patient 11, tumor ovary, 2X-121 dose 800 mg
[14] = Patient 12, tumor pancreas, 2X-121 dose 600 mg
[15] = Patient 13, tumor gallbladder, 2X-121 dose 600 mg
[16] = predicted resistant group (below DRP cutoff 50, N=7)

## O=c1[nH]nc2c3c(cccc13)N=C(CN1Cc3ccccc3C1)N2 [2X-121, 8-(isoindolin-2-ylmethyl)-2,9-dihydro-3H-pyridazino[3,4,5-de]quinazolin-3-one]
Hs578T
  IC50: 9600 nM
HCC1143
  IC50: 3700 nM
BT-20
  IC50: 7900 nM
DU145
  IC50: 1800 nM
HEC-1
  IC50: 1280 nM
ECC-1
  IC50: 680 nM
HEC-50B
  IC50: 3450 nM
HEC-88nu
  IC50: 1140 nM
MFE-280
  IC50: 770 nM
RL95-2
  IC50: 2130 nM
NCI-H82
  IC50: 470 nM
NCI-H69
  IC50: 1330 nM
Pfeiffer
  IC50: 710 nM
Jeko-1
  IC50: 1900 nM
ARH-77
  IC50: 3200 nM
tumor; BRCA mutated population, 1 of 6 responded
  response rate: 16%
tumor; Patient 1, tumor pancreas, 600 mg, StatusOS Death
  TimeOS: 208 days
tumor; Patient 1, tumor pancreas, 600 mg, StatusPFS censored
  TimePFS: 42 days
tumor; [3]
  Diameter (%), change from baseline: −10%
  RECIST: SD
tumor; Patient 2, tumor mesothelioma, 200 mg, StatusOS Death
  TimeOS: 167 days
tumor; Patient 2, tumor mesothelioma, 200 mg, StatusPFS Progression
  TimePFS: 50 days
tumor; [4]
  Diameter (%), change from baseline: 1%
  RECIST: PD
tumor; Patient 3, tumor pancreas, 600 mg, StatusOS censored
  TimeOS: 406 days
tumor; Patient 3, tumor pancreas, 600 mg, StatusPFS censored
  TimePFS: 321 days
tumor; [5]
  Diameter (%), change from baseline: −22%
  RECIST: SD
tumor; Patient 4, tumor intestine, 600 mg, StatusOS Death
  TimeOS: 120 days
tumor; Patient 4, tumor intestine, 600 mg, StatusPFS Progression
  TimePFS: 59 days
tumor; [6]
  Diameter (%), change from baseline: 23%
  RECIST: PD
tumor; Patient 5, tumor ovary, 600 mg, StatusOS censored
  TimeOS: 379 days
tumor; Patient 5, tumor ovary, 600 mg, StatusPFS Progression
  TimePFS: 331 days
tumor; [7]
  Diameter (%), change from baseline: −83%
  RECIST: PR
tumor; Patient 6, tumor lung, 50 mg, StatusOS censored
  TimeOS: 466 days
tumor; Patient 6, tumor lung, 50 mg, StatusPFS Progression
  TimePFS: 155 days
tumor; [8]
  Diameter (%), change from baseline: 5%
  RECIST: SD
tumor; Patient 7, tumor pancreas, 50 mg, StatusOS Death
  TimeOS: 335 days
tumor; Patient 7, tumor pancreas, 50 mg, StatusPFS censored
  TimePFS: 262 days
tumor; [9]
  Diameter (%), change from baseline: 3%
  RECIST: SD
tumor; Patient 8, tumor adrenal, 400 mg, StatusOS Death
  TimeOS: 190 days
tumor; Patient 8, tumor adrenal, 400 mg, StatusPFS Progression
  TimePFS: 50 days
tumor; [10]
  Diameter (%), change from baseline: 40%
  RECIST: PD
tumor; Patient 9, tumor kidney, 400 mg, StatusOS censored
  TimeOS: 865 days
tumor; Patient 9, tumor kidney, 400 mg, StatusPFS Progression
  TimePFS: 276 days
tumor; [11]
  Diameter (%), change from baseline: −2%
  RECIST: SD
tumor; Patient 10, tumor ovary, 800 mg, StatusOS Death
  TimeOS: 301 days
tumor; Patient 10, tumor ovary, 800 mg, StatusPFS Progression
  TimePFS: 50 days
tumor; [12]
  Diameter (%), change from baseline: 26%
  RECIST: PD
tumor; Patient 11, tumor ovary, 800 mg, StatusOS censored
  TimeOS: 715 days
tumor; Patient 11, tumor ovary, 800 mg, StatusPFS Progression
  TimePFS: 315 days
tumor; [13]
  Diameter (%), change from baseline: −46%
  RECIST: PR
tumor; Patient 12, tumor pancreas, 600 mg, StatusOS Death
  TimeOS: 257 days
tumor; Patient 12, tumor pancreas, 600 mg, StatusPFS Progression
  TimePFS: 189 days
tumor; [14]
  Diameter (%), change from baseline: −7%
  RECIST: SD
tumor; Patient 13, tumor gallbladder, 600 mg, StatusOS Death
  TimeOS: 121 days
tumor; Patient 13, tumor gallbladder, 600 mg, StatusPFS Progression
  TimePFS: 41 days
tumor; [15]
  Diameter (%), change from baseline: 3%
  RECIST: PD
tumor; Phase I, daily oral 50-800 mg, of 35 patients with response assessment
  patients with partial response (PR): 2
tumor; Phase I, daily oral doses of 50-800 mg, 41 enrolled, 35 with response assessment
  overall response rate (ORR): 5%
tumor; above DRP cutoff of 50 (N=6) vs below (N=7), P=0.2 one-sided
  hazard ratio, progression-free survival (PFS): 0.59
tumor; above dose-adjusted DRP cutoff of 50 (N=6) vs below (N=7), P=0.04 one sided
  hazard ratio, overall survival (OS): 0.26
tumor; all 13 patients analyzed with DRP (cutoff 0, 100% of population), 2/13
  response rate: 15%
tumor; patients above dose-adjusted DRP cutoff of 50, 2/6
  response rate: 33%
tumor; [16]
  median PFS: 155 days
  median survival: 208 days
tumor; predicted sensitive group (above DRP cutoff 50, N=6)
  median PFS: 296 days
P-glycoprotein
  substrate for P-glycoprotein: not a substrate for P-glycoprotein
[1]
  activity in P-glycoprotein expressing cells: active
[2]
  oral bioavailability: orally bioavailable
